Assay results: patent publication US20100035754A1, “AGENT FOR IMPROVING ALKALI RESISTANCE OF PLANT AND METHOD FOR IMPROVING ALKALI RESISTANCE OF PLANT” (COSMO OIL CO., LTD, priority 2007, published 2010)

Tests used:
[1] = test system: sunflower; experiment: Sunflower grown in alkaline soil, foliage spray of agent every 2 weeks, plant height and dry weight of shoots; format: in vivo, sunflower (Pachino-gold); conditions: pH of soil 8.8, foliage spray 5 mL/pot every 2 weeks, sown June 13, measured August 10
Protocol: Culture soil (sowing mold, product of Takii Seed Co., Ltd.; 440 mg-N/L, 390 mg-P/L, and 410 mg-K/L) and plug soil for turf were mixed at 1:1, and calcium carbonate was added to the soil mixture to a Ca concentration of 5 mass %. An appropriate amount of aqueous sodium carbonate solution was added thereto, followed by sufficiently mixing, to thereby provide alkaline soil (pH: 8.8). Each of the No. 6-pots (surface area: 177 cm^2) was filled with the above-prepared soil, and on the day of June 13, 4 seeds of sunflower (Pachino-gold, product of Takii Seed Co., Ltd.) were sown in the soil, followed by cultivation in a greenhouse. Fourteen days after, two uniform seedlings per pot were selected by cutting. After cutting, an aqueous solution (0.05 mass %) of each agent having a composition shown in Table 7 was sprayed every 2 weeks to the stems and leaves of the plants in each pot (5 mL/pot), and the pot was controlled under ordinary conditions. On the day of August 10, the plant height and the dry weight of shoots of each plant were measured.
The test procedure of Example 19 was repeated, except that application of sulfur to soil treatment and application of other agent ingredients to foliage treatment were simultaneously performed.
The test procedure of Example 19 was repeated, except that the agent was changed.

[2] = test system: Komatsuna; experiment: Komatsuna pot test: foliage application of agent, then sub-irrigation with pH 9.0 sodium carbonate/sodium hydrogencarbonate buffer, fresh weight of shoots; format: in vivo, Komatsuna (species: Calvita); conditions: 0.05 wt. % aqueous solution of agent on stems and leaves, 5 mL/pot, pH 9.0 buffer sub-irrigation three days after treatment, measured one week after irrigation
Protocol: Each of the pots (1/5000 a) was filled with andosols soil, and Komatsuna (species: Calvita, product of Nohara Seed Co., Ltd.) was sown in the soil. At the 3 leaf stage, five uniform seedlings per pot were selected by cutting. An aqueous solution (0.05 wt. %) of each agent having a composition shown in Table 1 was applied to the stems and leaves of the plants in each pot (5 mL/pot). Sulfur powder (“sulfur, powder,” product of Wako Pure Chemical Industries, Ltd.) was separately used in an amount given in Table 1 for soil treatment. The same sulfur powder was employed in the following Examples. Three days after the treatment, sub-irrigation was performed with a 0.5-mol/L aqueous sodium carbonate/sodium hydrogencarbonate buffer (pH: 9.0). One week after irrigation, the fresh weight of shoots of the plants was measured so as to check the growth conditions.
In Comparative Example 1, water was employed instead of an aqueous solution of each agent.

[3] = test system: tomato; experiment: Tomato seedlings transplanted to alkaline soil, foliage spray of agent every 2 weeks, dry weight of shoots; format: in vivo, tomato (Kyoryoku Beijyu); conditions: pH of soil 8.8, foliage spray 5 mL/pot every 2 weeks, transplanted June 6, harvested July 6
Protocol: Calcium carbonate was added to field soil so as to adjust the Ca content to 5 mass %, and an appropriate amount of aqueous sodium carbonate solution was added thereto, followed by sufficiently mixing, to thereby provide alkaline soil (pH: 8.8). A chemical fertilizer (base fertilizer) was added to the alkaline soil in an amount of 10 kg/10 a (as reduced to N). Each of the pots (1/5000 a) was filled with the above soil, and on the day of June 6, tomato seedlings (Kyoryoku Beijyu, product of Nohara Seed Co., Ltd.) were transplanted to the soil, followed by cultivation in a greenhouse. After transplanting, an aqueous solution (0.05 mass %) of each agent having a composition shown in Table 8 was sprayed every 2 weeks to the stems and leaves of the plants in each pot (5 mL/pot), and the pot was controlled under ordinary conditions. On the day of July 6, the soil was washed out with water, whereby the plants were harvested. Subsequently, the plants were dried at 80° C. for 24 hours by a drier, and the dry weight of shoots of each plant was measured.
The test procedure of Example 21 was repeated, except that application of sulfur to soil treatment and application of other agent ingredients to foliage treatment were simultaneously performed.
The test procedure of Example 21 was repeated, except that the agent was changed.

[4] = test system: Komatsuna; experiment: Komatsuna grown in alkaline soil, foliage spray of agent every 2 weeks, plant height and dry weight of shoots; format: in vivo, Komatsuna (Calvita); conditions: pH of soil 8.8, foliage spray 5 mL/pot every 2 weeks, 27 days after sowing, averaged
Protocol: Calcium carbonate was added to field soil so as to adjust the Ca content to 5 mass %, and an appropriate amount of aqueous sodium carbonate solution was added thereto, followed by sufficiently mixing, to thereby provide alkaline soil (pH: 8.8). A chemical fertilizer (base fertilizer) was added to the alkaline soil in an amount of 10 kg/10 a (as reduced to N). Each of the pots (1/5000 a) was filled with the above soil, and 10 seeds of Komatsuna (Calvita, product of Nohara Seed Co., Ltd.) were sown in the soil, followed by cultivation in a greenhouse. Ten days after, five uniform seedlings per pot were selected by cutting. After cutting, an aqueous solution (0.05 mass %) of each agent having a composition shown in Table 2 was sprayed every 2 weeks to the stems and leaves of the plants in each pot (5 mL/pot), and the pot was controlled under ordinary conditions. Twenty-seven days after sowing, the soil was washed out with water, whereby the plants were harvested. The plant height of each plant was measured. Subsequently, the plants were dried at 80° C. for 24 hours by a drier, and the dry weight of shoots of each plant was measured.
The test procedure of Example 7 was repeated, except that the amounts of ingredients were changed. […]
The test procedure of Example 7 was repeated, except that the agent was changed. […]

[5] = test system: Komatsuna; experiment: Komatsuna grown in alkaline soil, agent applied to the soil surface every 2 weeks (soil treatment), plant height and dry weight of shoots; format: in vivo, Komatsuna (Calvita); conditions: pH of soil 8.8, applied to surface of the soil 10 mL/pot every 2 weeks, 27 days after sowing
Protocol: Calcium carbonate was added to field soil so as to adjust the Ca content to 5 mass %, and an appropriate amount of aqueous sodium carbonate solution was added thereto, followed by sufficiently mixing, to thereby provide alkaline soil (pH: 8.8). A chemical fertilizer (base fertilizer) was added to the alkaline soil in an amount of 10 kg/10 a (as reduced to N) Each of the pots (1/5000 a) was filled with the above soil, and 10 seeds of Komatsuna (Calvita, product of Nohara Seed Co., Ltd.) were sown in the soil, followed by cultivation in a greenhouse. Ten days after, five uniform seedlings per pot were selected by cutting. After cutting, an aqueous solution (0.05 mass %) of each agent having a composition shown in Table 9 was applied every 2 weeks to the surface of the soil in each pot (10 mL/pot), and the pot was controlled under ordinary conditions. Twenty-seven days after sowing, the soil was washed out with water, whereby the plants were harvested, and the plant height of each plant was measured. Subsequently, the plants were dried at 80° C. for 24 hours by a drier, and the dry weight of shoots of each plant was measured.
The test procedure of Example 23 was repeated, except that application of sulfur to soil treatment and application of other agent ingredients to foliage treatment were simultaneously performed.
The test procedure of Example 23 was repeated, except that the agent was changed.

[6] = test system: corn; experiment: Corn grown in alkaline soil, foliage spray of agent every 2 weeks, plant height and dry weight of shoots; format: in vivo, corn (species: Amai bantam 90); conditions: pH of soil 8.7, foliage spray 5 mL/pot every 2 weeks, sown November 15, harvested December 26
Protocol: Calcium carbonate was added to field soil so as to adjust the Ca content to 5 mass %, and an appropriate amount of aqueous sodium carbonate solution was added thereto, followed by sufficiently mixing, to thereby provide alkaline soil (pH: 8.7). A chemical fertilizer (base fertilizer) was added to the alkaline soil in an amount of 10 kg/10 a (as reduced to N). Each of the pots (1/5000 a) was filled with the above soil, and 4 seeds of corn (species: Amai bantam 90, product of Tohoku Seed Co., Ltd.) were sown in the soil on November 15, followed by cultivation in a greenhouse. Twelve days after, two uniform seedlings per pot were selected by cutting. After cutting, an aqueous solution (0.05 mass %) of each agent having a composition shown in Table 6 was sprayed every 2 weeks to the stems and leaves of the plants in each pot (5 mL/pot), and the pot was controlled under ordinary conditions. On the day of December 26, the soil was washed out with water, whereby the plants were harvested, and the plant height of each plant was measured. Subsequently, the plants were dried at 80° C. for 24 hours by a drier, and the dry weight of shoots of each plant was measured.
The test procedure of Example 17 was repeated, except that application of sulfur to soil treatment and application of other agent ingredients to foliage treatment were simultaneously performed. […]

[7] = test system: cotton; experiment: Cotton grown in alkaline soil, foliage spray of agent every 2 weeks, plant height and dry weight of shoots; format: in vivo, cotton (species: Dwarf cotton); conditions: pH of soil 8.8, foliage spray 5 mL/pot every 2 weeks, sown Sep. 22, harvested November 7
Protocol: Calcium carbonate was added to field soil so as to adjust the Ca content to 5 mass %, and an appropriate amount of aqueous sodium carbonate solution was added thereto, followed by sufficiently mixing, to thereby provide alkaline soil (pH: 8.8). A chemical fertilizer (base fertilizer) was added to the alkaline soil in an amount of 10 kg/10 a (as reduced to N). Each of the pots (1/5000 a) was filled with the above soil, and 6 seeds of cotton (species: Dwarf cotton, product of Sakata Seed Co.) were sown in the soil on Sep. 22, followed by cultivation in a greenhouse. Ten days after, three uniform seedlings per pot were selected by cutting. After cutting, an aqueous solution (0.05 mass %) of each agent having a composition shown in Table 4 was sprayed every 2 weeks to the stems and leaves of the plants in each pot (5 mL/pot), and the pot was controlled under ordinary conditions. On the day of November 7, the soil was washed out with water, whereby the plants were harvested, and the plant height of each plant was measured. Subsequently, the plants were dried at 80° C. for 24 hours by a drier, and the dry weight of shoots of each plant was measured.
The test procedure of Example 13 was repeated, except that sulfur was further applied to soil treatment one day after foliage treatment with other agent ingredients.
The test procedure of Example 13 was repeated, except that the agent was changed. […]

[8] = test system: plants grown in alkaline soil; conditions: spraying, Non-Patent Document 1; cited from earlier work

Cl.NCC(=O)CCC(=O)O [compound 17, 5-Aminolevulinic acid hydrochloride]
Dry weight of shoots [1]: 6.8 g | Plant height (cm) [1]: 36 cm

Cl.NCC(=O)CCC(=O)O [compound 2, 5-Aminolevulinic acid hydrochloride]
Fresh weight of shoots (%)(5 plants in total, relative to treatment period) [2]: 55%

Cl.NCC(=O)CCC(=O)O [compound 20, 5-Aminolevulinic acid hydrochloride]
Dry weight of shoots [3]: 4.5 g

Cl.NCC(=O)CCC(=O)O [compound 5, 5-Aminolevulinic acid hydrochloride]
Dry weight of shoots [4]: 2.2 g | Plant height (cm) [4]: 11.3 cm

O=C([O-])CN(CCN(CC(=O)[O-])CC(=O)[O-])CCN(CC(=O)[O-])CC(=O)[O-].[Fe+3].[NH4+].[NH4+] [compound 24, Ammonium diethylenetriaminepentaacetatoferrate]
Dry weight of shoots [5]: 1.9 g | Plant height (cm) [5]: 10.1 cm

O=C([O-])CN(CCN(CC(=O)[O-])CC(=O)[O-])CCN(CC(=O)[O-])CC(=O)[O-].[Fe+3].[NH4+].[NH4+] [compound 6, Ammonium diethylenetriaminepentaacetatoferrate]
Dry weight of shoots [4]: 2.0 g | Plant height (cm) [4]: 9.8 cm

Cl.NCC(=O)CCC(=O)O [compound 14, 5-Aminolevulinic acid hydrochloride]
Dry weight of shoots [6]: 0.30 g | Plant height (cm) [6]: 23.2 cm

Cl.NCC(=O)CCC(=O)O [compound 10, 5-Aminolevulinic acid hydrochloride]
Dry weight of shoots [7]: 0.9 g | Plant height (cm) [7]: 13.1 cm

Cl.NCC(=O)CCC(=O)O [compound 23, 5-Aminolevulinic acid hydrochloride]
Dry weight of shoots [5]: 2.1 g | Plant height (cm) [5]: 10.3 cm

NCC(=O)CCC(=O)O [5-aminolevulinic acid]
Foliage yield of plants [8]: prevent decrease in foliage yield
